Experimental data published in patent US20050043341A1, “3-'Hydroxy-(-4-trifluoromethylphenyl)-methyl-7-spirocyclobutyl-5,6,7 8-tetrahydroquinolin-5-ol derivatives and the use of the same as cholesterol ester transfer protein (cetp) inhibitors” (priority 2001, published 2005).
Like-named read-outs stand apart in the source and are kept apart here.

How the values were obtained:
[1] = target: T1, CETP activity in the serum (Homo sapiens, UniProt P11597); test: Ex vivo activities on transgenic hCETP mice (serum CETP activity after oral administration); settings: mouse, cholesteryl ester transport in serum
T1 construct: determination of its basal CETP activity in the serum; from tissue; host or cells: serum of transgenic hCETP mice
T1 sequence (P11597 18-493): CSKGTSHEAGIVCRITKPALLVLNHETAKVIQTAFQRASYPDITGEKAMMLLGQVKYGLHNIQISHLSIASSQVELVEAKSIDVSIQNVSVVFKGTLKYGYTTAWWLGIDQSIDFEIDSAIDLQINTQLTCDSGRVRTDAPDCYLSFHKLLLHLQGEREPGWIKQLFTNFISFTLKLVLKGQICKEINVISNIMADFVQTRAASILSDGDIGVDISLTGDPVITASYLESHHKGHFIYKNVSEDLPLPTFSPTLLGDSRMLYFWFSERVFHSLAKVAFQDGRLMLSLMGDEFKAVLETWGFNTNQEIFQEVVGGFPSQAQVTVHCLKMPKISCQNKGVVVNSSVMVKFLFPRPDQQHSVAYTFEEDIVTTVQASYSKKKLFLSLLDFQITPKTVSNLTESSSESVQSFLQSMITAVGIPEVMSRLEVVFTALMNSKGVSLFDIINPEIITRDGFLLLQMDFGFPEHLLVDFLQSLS
Protocol: To test for CETP-inhibitory activity, the substances are administered orally using a stomach tube to transgenic hCETP mice of our own breeding (Dinchuk et al. BBA (1995) 1295-301). To this end, male mice are randomly assigned to groups having an equal number of animals, as a rule n=3, one day before the start of the experiment. Before administration of the substance, blood is taken from each mouse by puncture of the retroorbital venous plexus for the determination of its basal CETP activity in the serum (T1). The test substance is then administered to the animals using the stomach tube. At specific times after administration of the test substance, blood is taken from the animals by puncture a second time (T2), as a rule 1, or 3 and 6 h after substance administration, but if appropriate this can also be carried out at another time.
In order to be able to assess the inhibitory activity of a substance, for each time, i.e. 1 or 3 or 6 h, a corresponding control group is employed whose animals only receive the formulating agent without substance. In the control animals, the second blood sampling per animal is carried out as in the substance-treated animals in order to be able to determine the change in the CETP activity without inhibitor over the corresponding experimental time interval (1, 3 or 6 h).
After termination of the clotting, the blood samples are centrifuged and the serum is removed by pipette.
For the determination of the CETP activity, the cholesteryl ester transport over 4 h is determined. To this end, as a rule 2 μl of serum are employed in the test batch and the test is carried out as described under “CETP fluorescence test”.
The differences in the cholesteryl ester transport (pM CE*/h (T2)−pM CE*/h (T1)) are calculated for each animal and averaged in the groups. A substance which at one of the times reduces the cholesteryl ester transport by >30% is regarded as active.

CETP = target: T2, CETP (Homo sapiens, UniProt P11597); test: CETP-SPA test; assay type: biochemical; settings: 3H-cholesterol ester transfer from HDL to biotin-LDL, 37° C., 18 h
T2 construct: CETP is obtained in partially purified form from human plasma; from tissue; host or cells: human plasma
T2 sequence (P11597 18-493): T1 sequence (P11597 18-493)
Protocol: CETP is obtained in partially purified form from human plasma by differential centrifugation and column chromatography and used for the test. To this end, human plasma is adjusted to a density of 1.21 g per ml using NaBr and centrifuged at 4° C. at 50000 rpm for 18 h. The bottom fraction (d>1.21 g/ml) is applied to a Sephadex® Phenyl-Sepharose 4B (Pharmacia) column, washed with 0.15 M NaCl/0.001 M tris HCl pH 7.4 and then eluted with dist. water. Die CETP-active fractions are pooled, dialysed against 50 mM Na acetate pH 4.5 and applied to a CM-Sepharose® (Pharmacia) column. The mixture is then eluted using a linear gradient (0-1 M NaCl). The pooled CETP fractions are dialysed against 10 mM TrisHCl pH 7.4 and then further purified by chromatography on a Mono Q® column (Pharmacia).
50 ml of fresh human EDTA plasma are adjusted to a density of 1.12 using NaBr and centrifuged at 4° C. in a Ty 65 rotor at 50000 rpm for 18 h. The upper phase is used for the obtainment of cold LDL. The lower phase is dialysed against 3×41 of PDB buffer (10 mM tris/HCl pH 7.4, […], 1 mM EDTA, 0.02% NaN3). Per 10 ml of retentate volume, 20 μl of 3H-cholesterol (Dupont NET-725; 1 μC/μl dissolved in ethanol!) is then added and the mixture is incubated at 37° C. under N2 for 72 h.
The batch is then adjusted to the density 1.21 using NaBr and centrifuged at 20° C. in a Ty 65 rotor at 50000 rpm for 18 h. The upper phase is recovered and the lipoprotein fractions are purified by gradient centrifugation. To this end, the isolated, labelled lipoprotein fraction is adjusted to a density of 1.26 using NaBr. 4 ml each of this solution are covered in centrifuged tubes (SW 40 rotor) with a layer of 4 ml of a solution of density 1.21 and 4.5 ml of a solution of 1.063 (density solutions of PDB buffer and NaBr) and then centrifuged for 24 h at 38000 rpm and 20° C. in the SW 40 rotor. The intermediate layer lying between the density 1.063 and 1.21, containing the labelled HDL, is dialysed against 3×100 volumes of PDB buffer at 4° C.
The retentate contains radiolabelled ^3H-CE-HDL, which, adjusted to about 5×10^6 cmp per ml, is used for the test.
For testing of the CETP activity, the transfer of ^3H-cholesterol ester from human HD lipoproteins to biotinylated LD lipoproteins is measured.
The reaction is ended by addition of streptavidin-SPA®beads (Amersham) and the transferred radioactivity is determined directly in a liquid scintillation counter.
In the test batch, 10 μl of HDL-^3H-cholesterol ester (˜50000 cpm) are incubated at 37° C. for 18 h with 10 μl of biotin-LDL (Amersham) in 50 mM Hepes/0.15 M NaCl/0.1% bovine serum albumin/0.05% NaN3 pH 7.4 containing 10 μl of CETP (1 mg/ml) and 3 μl of solution of the substance to be tested (dissolved in 10% DMSO/1% RSA). 200 μl of the SPA-streptavidin bead solution (TRKQ 7005) are then added, incubated further with shaking for 1 h and then measured in a scintillation counter.
Corresponding incubations with 10 μl of buffer, 10 μl of CETP at 4° C. and 10 μl of CETP at 37° C. serve as controls.
The activity transferred in the control batches with CETP at 37° C. is rated as 100% transfer. The substance concentration at which this transfer is reduced to half is specified as the IC50 value.

[2] = 1 h after administration, read-out: % inhibition at 30 mg/kg, 1 h
[3] = 3 h after administration, read-out: % inhibition at 30 mg/kg, 3 h
[4] = 6 h after administration, read-out: % inhibition at 30 mg/kg, 6 h

SMILES: CC(C)c1nc2c(c(-c3ccc(F)cc3)c1[C@@H](O)c1ccc(C(F)(F)F)cc1)[C@@H](O)CC1(CCC1)C2 [Example 51, (5S)-2-Isopropyl-4-(4-fluorophenyl)-3-[(S)-hydroxy-(4-trifluoromethylphenyl)-methyl]-7-spirocyclobutyl-5,6,7,8-tetrahydroquinolin-5-ol]
- inhibition at 30 mg/kg [1, 2]: 72%
- inhibition at 30 mg/kg [1, 3]: 64%
- inhibition at 30 mg/kg [1, 4]: 60%
- IC50 (CETP): 15 nM

SMILES: CC(C)c1nc2c(c(-c3ccccc3)c1[C@@H](O)c1ccc(C(F)(F)F)cc1)[C@@H](O)CC1(CCC1)C2 [Example 53, (5S)-2-Isopropyl-4-phenyl-3-[(S)-hydroxy-(4-trifluoromethylphenyl)-methyl]-7-spirocyclobutyl-5,6,7,8-tetrahydroquinolin-5-ol]
- inhibition at 30 mg/kg [1, 2]: 69%
- inhibition at 30 mg/kg [1, 3]: 51%
- inhibition at 30 mg/kg [1, 4]: 44%
- IC50 (CETP): 30 nM

SMILES: CC(C)c1nc2c(c(-c3cccs3)c1[C@@H](O)c1ccc(C(F)(F)F)cc1)[C@@H](O)CC1(CCC1)C2 [Example 61, (5S)-2-Isopropyl-4-(2-thienyl)-3-[(S)-hydroxy-(4-trifluoromethylphenyl)-methyl]-7-spirocyclobutyl-5,6,7,8-tetrahydroquinolin-5-ol]
- inhibition at 30 mg/kg [1, 2]: 71%
- inhibition at 30 mg/kg [1, 3]: 49%
- inhibition at 30 mg/kg [1, 4]: 35%
- IC50 (CETP): 40 nM
